What was measured:
[1] = system: autophosphorylated CaMKIIγ in K562 cells; assay: Western blot of CaMKIIγ autophosphorylation in K562 cells; type: cell-based, human; details: gleevec 5 uM, ATRA five days
Protocol: FIG. 9. Terminal differentiation/apoptosis of myeloid leukemia cells is associated with decreased CaMKIIγ activation. (A) Lysates from the HL60, NB4 and U937 myeloid cell lines treated with ATRA (1 μM) for the indicated period of time were subjected to Western blots. (B) Lysates from the indicated myeloid cell lines treated for five days with the indicated concentration of ATRA were subjected to Western blots. (C) Lysates from HL60 cells treated with TPA (0.1 μM) for the indicated time were subjected to Western blots. (D) Lysates from NB4 cells treated with arsenic trioxide (1 uM) for the indicated time were subjected to Western blots.
FIG. 10. Inhibiting bcr-abl activity/expression inhibits CaMKIIγ activation. (A) Lysates from K562 cells undergoing growth arrest following treatment with gleevec (5 uM) for the indicated times were subjected to Western blots. (B) Lysates from TonB210.1 cells depleted of doxycycline for the indicated period of time were subjected to Western blots. (C) IL-3 dependent TonB210.1 cells were deprived of IL-3 for 24 hours (lane 1). The cells were then treated with the indicated compounds simultaneously with the addition of doxycycline (lanes 2-8). After 24 hours cell lysates were harvested and subjected to Western blots with the indicated CaMKII antibodies. (D) K562 cells were cultured for 48 hours with the indicated chemical inhibitors of specific signal transduction pathways. Cell lysates were harvested and subjected to Western blot analysis.
FIG. 12. CaMKII regulates multiple signal transduction pathways in myeloid cells. (A,B) Lysates from K562 cells cultured for the indicated time in KN93 were subjected to Western blots. (C) The K562 cells transduced as described in Materials and Methods with either (i) the doxycycline (DOX) inducible expression vector/transactivator harboring the full length, Lys^43 mutated, kinase dead CaMKIIγ (kdCaMKIIγ (Tet-on)) or (ii) the CaMKII shRNA generating plasmids, were cultured in liquid suspension in the presence or absence of DOX as indicated, and cell counts obtained after 48 hours. (D) Lysates from K562 cells transduced with the indicated vectors were subjected to Western blots utilizing the indicated antibodies. For lanes 2 and 4 doxycycline (DOX) treatment was for two days.
Antibodies and Western blots. Protein extracts, immunoprecipitations and Western blots were performed as previously detailed (Si J, Collins S J. IL-3-induced enhancement of retinoic acid receptor activity is mediated through Stat5, which physically associates with retinoic acid receptors in an IL-3-dependent manner. Blood 100: 4401-9 (2002)). Antibodies against CaMKI, CaMKIIγ, CaMKIV, c-myc, Stat3, Stat5, calmodulin, as well as the phosphospecific CaMKII (T286, 287) and phosphospecific CaMKI (T177) antibodies were from Santa Cruz Biotechnology. Antibodies against phospho-Stat1 (Ser727), phospho-Stat3 (Ser727 and Tyr 705), phospho-Stat5 (Tyr 694), phospho-p44/42 MAP kinase (Thr202/Tyr 204), p44/42 MAP kinase, phospho-p38 MAP kinase (Thr 180/Tyr 182), phospho-GSK3β (Ser9) were from Cell Signaling Technology. Antibodies against Stat1, GSK3β, β-catenin, PP2Ac, and cyclin D1 were from BD Biosciences.

[2] = system: RAR transcriptional activity in HL60 cells; assay: RARE-driven luciferase reporter in HL60 cells; type: cell-based, human; details: KN62 5 uM, KN93 5 uM, ATRA 1 uM, six hours
Protocol: FIG. 1. CaM kinase isoform expression in hematopoietic cells. (A) The activity of an ATRA-responsive luciferase reporter (βRARE-tk-Luc, 25 μg) was assessed in electroporated HL60 cells six hours after treatment with the indicated concentrations of ionomycin and ATRA. (B) The activity of the luciferase reporter (βRARE-tk-Luc, 25 μg) was assessed in HL60 six hours after treatment with KN62 (5 uM), KN93 (5 uM) and ATRA (1 uM). (C) Western blots were performed utilizing the indicated antibodies. F9 (column 6) is a mouse embryonal carcinoma cell line. BaF3 (column 7) is a cultured pre-B cell line. BM cells (column 8) are kit-ligand dependent normal murine hematopoietic precursors. PT67 murine fibroblasts individually transduced with either rat CaMKIIα, human CaMKIα or human CaMKIV (column 9) together with brain lysates (column 1) serve as positive controls for the respective antibodies. (D) CaMK assays were performed on HL-60 cell lysates immunoprecipitated with the indicated antibodies.
Transient transfections and luciferase assays. Murine PT67 fibroblasts were transfected utilizing calcium phosphate precipitation. All hematopoietic cell lines were transiently transfected by electroporation as previously detailed (Johnson, B. et al., Molecular and Cellular Biology 19:3372-3382 (1999)). In the transient transfections the LXSN vector (M28248) served as the expression vector for the wild type and site-directed mutagenized CaMKII and RARα coding region cDNAs. Human cDNA homologous to the coding region of rat CaMKIINα, a CaMKII inhibitory protein, was obtained by RT-PCR from HL60 RNA and cloned into the LXSN vector. The RA-responsive luciferase reporter harbors the RARE from the RARβ2 promoter as previously detailed (Si, J., and Collins, S. J., Blood 100:4401-4409 (2002)). The PON838 plasmid, a β-galactosidase reporter driven by the β-actin promoter, was used as an internal control to determine transfection efficiency for calculating relative luciferase activity.

K-562 cells = assay: Differentiation of K-562 cells; type: cell-based, human
Excerpt: Pharmacological CaMK inhibitors trigger myeloid leukemia cell differentiation. Particularly compelling evidence for the physiological importance of the CaMKII—mediated regulation of RAR activity is our experimental observation that KN-62, a pharmacological inhibitor of the CaMKs, enhances both RAR transcriptional activity (FIG. 1B) and the differentiation of certain myeloid leukemia cell lines (FIG. 7). Acute myelogenous leukemia (AML) is a heterogenous disease, and successful therapy with RA has been generally confined to those leukemias harboring RARα chromosome translocations.
Inhibitors of CaMKII inhibit the proliferation of myeloid leukemia cell lines. To determine whether inhibiting CaMKIIγ activity might have any effect on myeloid leukemia cell proliferation/viability, we treated K562 cells with the CaMK inhibitor KN93. […] The KN93 induced inhibition of K562 cell proliferation was accompanied by a reduction in the levels of the activated (autophosphorylated) CaMKIIγ (FIG. 12A, row 1).

CaMKs = details: inhibitors interfere with binding of Ca++/CaM to the CaMKs; cited from earlier work

SMILES	activated, autophosphorylated CaMKIIγ level [1]	RAR transcriptional activity (βRARE-tk-Luc reporter) [2]	differentiation of K-562 (K-562 cells; preliminary studies, not shown)	IC50 (CaMKs)	morphologic differentiation of K562 (K-562 cells; KN93 treated K562)
CC1=C(/C=C/C(C)=C/C=C/C(C)=C/C(=O)O)C(C)(C)CCC1 [ATRA, All-trans retinoic acid]	did not exhibit any decrease	–	–	–	–
CN([C@@H](Cc1ccc(OS(=O)(=O)c2cccc3cnccc23)cc1)C(=O)N1CCN(c2ccccc2)CC1)S(=O)(=O)c1cccc2cnccc12 [KN-62]	–	enhance	does not induce	0.9 µM	–
COc1ccc(S(=O)(=O)N(CCO)c2ccccc2CN(C)C/C=C/c2ccc(Cl)cc2)cc1 [KN-93]	time dependent reduction	enhance	–	0.9 µM	no effect

From US20080255244A1, “CaM Kinase II Inhibitor Improves Retinoic Acid Therapy and Inhibits the Proliferation of Myeloid Leukemia Cells” (Fred Hutchinson Cancer Research Center, priority 2007, published 2008)
